Measured values: patent US8999942B2, “Polyol modified aminoglycoside-lipid conjugates” (University of Manitoba, priority 2010, dated 2015)

What was measured:
[1] = system: Streptococcus pneumoniae ATCC 49619; assay: MIC, broth macrodilution (CLSI), S. pneumoniae ATCC 49619; format: cell-based
Experimental: (§1) All compounds were tested against American Type Culture Collection (ATCC) reference strains as well as clinical isolates from the Canadian Intensive Care Unit (CAN-ICU) study (Zhanel, et al., 2008). […] Antibacterial activity against Gram-positive and Gram-negative microorganisms was performed via broth macrodilution tests using CLSI methodology (Clinical and Laboratory Standards Institute, 2006). The minimum inhibitory concentration (MIC) in μg/mL of the aminoglycoside-derived amphiphilic polycarbamates and polyethers were determined using established methods (Clinical and Laboratory Standards Institute, 2006) and are shown in Tables 1 and 2, respectively.

[2] = system: S. epidermidis ATCC 14990; assay: MIC, broth macrodilution (CLSI), S. epidermidis; format: cell-based, Staphylococcus epidermidis; details: footnote ATCC 1490
Experimental: as §1

[3] = system: Pseudomonas aeruginosa ATCC 27853; assay: MIC, broth macrodilution (CLSI), P. aeruginosa ATCC 27853; format: cell-based
Experimental: as §1

[4] = system: methicillin-resistant Staphylococcus aureus (MRSA) ATCC 33592; assay: MIC, broth macrodilution (CLSI), MRSA ATCC 33592; format: cell-based; details: for Minimal Inhibitory Concentration (MIC): MRSA, methicillin-resistant S. aureus ATCC 33592
Experimental: as §1

[5] = system: E. coli (Gentamicin-resistant) CAN-ICU 61714; assay: MIC, broth macrodilution (CLSI), gentamicin-resistant E. coli; format: cell-based; details: footnote ATCC 6174 (gentamicin resistant)
Experimental: as §1

[6] = system: Acinetobacter baumanni (CAN-ICU 63169); assay: MIC, broth macrodilution (CLSI), A. baumannii; format: cell-based; details: A. baumannii CAN-ICU 63169
Experimental: as §1

[7] = system: Stenotrophomonas maltophilia (CAN-ICU 62585); assay: MIC, broth macrodilution (CLSI), S. maltophilia; format: cell-based; details: for Minimal Inhibitory Concentration (MIC): S. maltophilia, footnote CAN-ICU 62584
Experimental: as §1

[8] = system: S. aureus, MRSA, S. epidermidis and MRSE; assay: MIC, S. aureus, MRSA, S. epidermidis and MRSE; format: cell-based, Staphylococcus aureus, Staphylococcus epidermidis
Experimental: as §1

E. coli ATCC 25922 = assay: MIC, broth macrodilution (CLSI), E. coli ATCC 25922; format: cell-based
Experimental: as §1

S. aureus ATCC 29213 = assay: MIC, broth macrodilution (CLSI), S. aureus ATCC 29213; format: cell-based, Staphylococcus aureus
Experimental: as §1

S. pneumoniae ATCC 13883 = assay: MIC, broth macrodilution (CLSI), S. pneumoniae ATCC 13883; format: cell-based
Experimental: as §1

[9] = system: methicillin-resistant Staphylococcus epidermidis (MRSE) CAN-ICU 61589; assay: MIC, broth macrodilution (CLSI), MRSE; format: cell-based; details: methicillin-resistant S. epidermidis, footnote (ATCC 14990)
Experimental: as §1

three strains of E. coli = assay: MIC, three strains of E. coli; format: cell-based
Experimental: as §1

[10] = system: P. aeruginosa (Gent-R) CAN-ICU 62308; assay: MIC, broth macrodilution (CLSI), P. aeruginosa CAN-ICU 62308; format: cell-based, Pseudomonas aeruginosa
Experimental: as §1

[11] = system: E. coli (Amikacin MIC 32) CAN-ICU 63074; assay: MIC, broth macrodilution (CLSI), E. coli CAN-ICU 63074; format: cell-based
Experimental: as §1

[12] = system: P. aeruginosa (two strains); assay: MIC, P. aeruginosa two strains; format: cell-based, Pseudomonas aeruginosa
Experimental: as §1

Gram-negative strains = assay: Gram-negative antibacterial activity; format: cell-based; details: Gram-negatives E. coli and S. maltophilia
Experimental: as §1

[13] = system: Gram-positive and Gram-negative strains tested; assay: Antibacterial activity, strains tested; format: cell-based
Experimental: as §1

Compound	Minimal Inhibitory Concentration (MIC) [1] [µg/mL]	Minimal Inhibitory Concentration (MIC) [2] [µg/mL]	Minimal Inhibitory Concentration (MIC) [3] [µg/mL]	Minimal Inhibitory Concentration (MIC) [4] [µg/mL]	Minimal Inhibitory Concentration (MIC) [5] [µg/mL]	Minimal Inhibitory Concentration (MIC) [6] [µg/mL]	Minimal Inhibitory Concentration (MIC) [7] [µg/mL]	Minimal Inhibitory Concentration (MIC) (E. coli ATCC 25922) [µg/mL]	Minimal Inhibitory Concentration (MIC) (S. aureus ATCC 29213) [µg/mL]	Minimal Inhibitory Concentration (MIC) (S. pneumoniae ATCC 13883) [µg/mL]	Minimal Inhibitory Concentration (MIC) [9] [µg/mL]	Minimal Inhibitory Concentration (MIC) [10] [µg/mL]	Minimal Inhibitory Concentration (MIC) [11] [µg/mL]	antibacterial activity (in words) [13]	other results
NCC1OC(OC2C(N)CC(N)C(OC(=O)Nc3ccccc3)C2OC2OC(COC(=O)Nc3ccccc3)C(OC3OC(CN)C(OC(=O)Nc4ccccc4)C(OC(=O)Nc4ccccc4)C3N)C2OC(=O)Nc2ccccc2)C(N)C(OC(=O)Nc2ccccc2)C1OC(=O)Nc1ccccc1.O=C(O)C(F)(F)F.O=C(O)C(F)(F)F.O=C(O)C(F)(F)F.O=C(O)C(F)(F)F.O=C(O)C(F)(F)F.O=C(O)C(F)(F)F (stereo not drawn) [Compound 1]	16	0.5	256	1	16	32	4	32	1	256	0.5	128	16		fold enhancement compared to unmodified Neomycin B ([4]; against MRSA): 256 fold; MIC fold lower compared to amphiphilic di- and tetracationic lipopeptides (Serrano et al., 2009) ([7]; against S. maltophilia): 32-64 fold; fold increased susceptibility over Neomycin B ([7]; against multidrug-resistant S. maltophilia): over 128 fold; MIC [8]: ≤ 1 µg/mL; MIC fold reduced compared to Neomycin B sulfate (three strains of E. coli; Neomycin B susceptible E. coli): 2-8 fold; MIC (three strains of E. coli; three strains of E. coli): 16 to 32 µg/mL
NCC1OC(OC2C(N)CC(N)C(OCc3ccccc3)C2OC2OC(COCc3ccccc3)C(OC3OC(CN)C(OCc4ccccc4)C(OCc4ccccc4)C3N)C2OCc2ccccc2)C(N)C(OCc2ccccc2)C1OCc1ccccc1.O=C(O)C(F)(F)F.O=C(O)C(F)(F)F.O=C(O)C(F)(F)F.O=C(O)C(F)(F)F.O=C(O)C(F)(F)F.O=C(O)C(F)(F)F (stereo not drawn) [Compound 11]	16	2	32	4	16	16	8	8	4	8	2	64	4		MIC [12]: 32 to 64 µg/mL; fold decrease in activity compared to polycarbamate analog 1 ([7]; against S. maltophilia): 2 fold; MIC [8]: 2 to 4 µg/mL
CCCCCCNC(=O)OCC1OC(OC2C(NC(=O)C(CCN)OC(=O)NCCCCCC)CC(N)C(OC3OC(CN)C(OC(=O)NCCCCCC)C(OC(=O)NCCCCCC)C3OC(=O)NCCCCCC)C2OC(=O)NCCCCCC)C(OC(=O)NCCCCCC)C(N)C1OC(=O)NCCCCCC.O=C(O)C(F)(F)F.O=C(O)C(F)(F)F.O=C(O)C(F)(F)F.O=C(O)C(F)(F)F (stereo not drawn) [Compound 9]	32	4	64	4	8	>128	16	4	4	>128	4	16	4		fold improvement compared to 6 (Gram-negative strains): 8-32 fold
COCC1OC(OC2C(N)CC(N)C(OC3OC(CN)C(OC)C(OC)C3OC)C2OC)C(OC)C(N)C1OC.O=C(O)C(F)(F)F.O=C(O)C(F)(F)F.O=C(O)C(F)(F)F.O=C(O)C(F)(F)F (stereo not drawn) [Compound 17]	>256	256	>256	>256	>256	>256	>256	>256	>256	>256	>256	>256	>256	inactivity	
COCC1OC(OC2C(OC)C(N)CC(N)C2OC2OC(CN)C(OC)C(OC)C2N)C(OC)C1OC1OC(CN)C(OC)C(OC)C1N.O=C(O)C(F)(F)F.O=C(O)C(F)(F)F.O=C(O)C(F)(F)F.O=C(O)C(F)(F)F.O=C(O)C(F)(F)F.O=C(O)C(F)(F)F (stereo not drawn) [Compound 14]	>256	256	>256	>256	>256	>256	>256	>256	>256	>256	>256	>256	>256	inactivity	
COCC1OC(OC2C(NC(=O)C(CCN)OC)CC(N)C(OC3OC(CN)C(OC)C(OC)C3OC)C2OC)C(OC)C(N)C1OC.O=C(O)C(F)(F)F.O=C(O)C(F)(F)F.O=C(O)C(F)(F)F.O=C(O)C(F)(F)F (stereo not drawn) [Compound 20]	>256	>256	>256	>256	>256	>256	>256	>256	>256	>256	>256	>256	>256	inactivity	
CN(C)c1ccc(NC(=O)OCC2OC(OC3C(N)CC(N)C(OC4OC(CN)C(OC(=O)Nc5ccc(N(C)C)cc5)C(OC(=O)Nc5ccc(N(C)C)cc5)C4OC(=O)Nc4ccc(N(C)C)cc4)C3OC(=O)Nc3ccc(N(C)C)cc3)C(OC(=O)Nc3ccc(N(C)C)cc3)C(N)C2OC(=O)Nc2ccc(N(C)C)cc2)cc1.O=C(O)C(F)(F)F.O=C(O)C(F)(F)F.O=C(O)C(F)(F)F.O=C(O)C(F)(F)F.O=C(O)C(F)(F)F.O=C(O)C(F)(F)F.O=C(O)C(F)(F)F.O=C(O)C(F)(F)F.O=C(O)C(F)(F)F.O=C(O)C(F)(F)F.O=C(O)C(F)(F)F (stereo not drawn) [Compound 7]	>256	16	>256	32	256	>256	>256	256	16	>256	32	256	256		
NCC1OC(OC2C(N)CC(N)C(OC3OC(COC(=O)Nc4ccccc4)C(OC(=O)Nc4ccccc4)C(N)C3OC(=O)Nc3ccccc3)C2OC(=O)Nc2ccccc2)C(OC(=O)Nc2ccccc2)C(OC(=O)Nc2ccccc2)C1OC(=O)Nc1ccccc1.O=C(O)C(F)(F)F.O=C(O)C(F)(F)F.O=C(O)C(F)(F)F.O=C(O)C(F)(F)F (stereo not drawn) [Compound 5]	64	4	>256	32	>256	>256	>256	>256	32	>256	8	>256	>256		
